Values of other authors as cited in patent US5138036A, “Isolation and structural elucidation of the cytostatic cyclodepsipeptide dolastatin 14” (Arizona Board of Regents acting on behalf of Arizona State …, priority 1989, dated 1992).

Legend:
[1] = tested on: P388 lymphocytic leukemia (PS system); settings: 1-4 μg/kg
human melanoma xenograph = settings: 3.25-26 μg/kg
B16 melanoma = settings: 1.44-11.1 μg/kg

Structure (SMILES): CC[C@H](C)[C@@H]([C@@H](CC(=O)N1CCC[C@H]1[C@H](OC)[C@@H](C)C(=O)N[C@@H](Cc1ccccc1)c1nccs1)OC)N(C)C(=O)[C@@H](NC(=O)[C@H](C(C)C)N(C)C)C(C)C [dolastatin 10]
- life extension [1]: 69-102%
- curative response (human melanoma xenograph): 17-67%
- life extension (B16 melanoma): 42-138%
